In US5428168A, “Lactol PAF antagonists” (British Biotech Pharmaceuticals Limited, priority 1990, dated 1995):
pIC50: −log10 of the molar value.

Experiments:
[1] = target: T1, PAF receptor (Homo sapiens, UniProt P25105); assay: Inhibition of [3H]-PAF receptor binding to human platelet plasma membrane (isotopic labelling and filtration); settings: human platelet membranes, 0.5 nM [3H]-PAF, 0° C., 1 hour
T1 construct: Platelet concentrates were obtained from a hospital blood bank; from tissue; host or cells: human platelets (plasma membrane fraction of lysed platelets from hospital blood bank concentrates)
Procedure: Compounds of general formula I inhibit PAF-induced functions in both the cellular and tissue levels by changing the PAF binding to its specific receptor site. The ability of compounds of general formula I to inhibit the binding of PAF to its specific receptor binding site on human platelet plasma membranes was measured according to the pharmacological example. […] Platelet concentrates were obtained from a hospital blood bank. These platelet concentrates (500-2500 ml.) were centrifuged at 800 rpm for 10 minutes in a SORVALL RC3B centrifuge to remove the red blood cells present. (The word SORVALL is a trade mark.) The supernatant was subsequently centrifuged at 3,000 rpm in a SORVALL RC3B centrifuge to pellet the platelets present. The platelet rich pellets were resuspended in a minimum volume of buffer (150 mM NaCl, 10 mM Tris, 2 mM EDTA, pH 7.5) and layered onto Ficoll-Paque gradients, 9 ml platelet concentrate to 2 ml Ficoll, and centrifuged at 1,900 rpm for 15 minutes in a SORVALL RT6000 centrifuge. This step removes the residual red blood cells and other nonspecific material such as lymphocytes from the preparation. The platelets which form a band between the plasma and the Ficoll were removed, resuspended in the above buffer and centrifuged at 3,000 rpm for 10 minutes in a SORVALL RT6000 centrifuge. The pelleted platelets were resuspended in buffer (10 mM Tris, 5mM MgCl2, 2 mM EDTA, pH 7.0), snap freezed in liquid N2 and allowed to thaw slowly at room temperature in order to lyse the platelets. The latter step was repeated at least 3 times to ensure proper lysis. The lysed platelets were centrifuged at 3,000 rpm for 10 minutes in a SORVALL RT6000 centrifuge and resuspended in buffer. The latter step was repeated twice in order to remove any cytoplasmic proteins which may hydrolyse the […]. The prepared platelet membranes may be stored at -70° C. After thawing the prepared membranes were centrifuged in a SORVALL RT6000 at 3,000 rpm for 10 minutes and resuspended in assay buffer. The assay was conducted by preparing a series of Tris-buffered solutions of the selected antagonist of predetermined concentrations. […] Incubation was initiated by the addition of 100 μg of the isolated membrane fraction to each of the above solutions at 0° C. […] (The word WHATMAN is a trade mark.) The residue in each case was rapidly washed 4 times with 5 ml cold (4° C.) Tris-buffer solution. […] % Inhibition=[(TB-TBA)/SB]x100 where the specific binding SB=TB-NSB […]

[2] = tested on: PAF-induced hypotension in the rat; assay: Reversal of PAF-induced hypotension in anaesthetised rats; format: in vivo, rat (male Sprague-Dawley); settings: for ED50: iv, i.v. bolus, PAF 100 ng/kg/min i.v., straight line interpolation, read-out: ED50 (dose to cause 50% reversal of the hypotensive PAF response); for inhibition of PAF-induced hypotension: @ 1 mg/kg i.v.
Procedure: Male Sprague-Dawley rats (300-400 g) were anaesthetised with a mixture of sodium pentobarbitone, 22.5 mg·kg^-1 and thiopental 62.5 mg·kg^-1. Through a midline incision in the neck, the trachea was cannulated and the animals breathed spontaneously. A carotid artery was cannulated for the measurement of blood pressure and this signal was used to trigger a rate meter to measure heart rate. Both jugular veins were cannulated: one for the infusion of PAF and the other for the bolus administration of test compounds.
PAF, 100 ng·kg^-1 .min^-1 was infused i.v. until a sustained fall in mean blood pressure of 50 mmHg was achieved. […] The peak of this reversal was measured and the dose to cause a 50% reversal of the hypotensive PAF response (ED50) calculated by straight line interpolation and the results are presented in Table 2.

[3] = tested on: PAF-induced bronchoconstriction in the guinea pig; assay: Reversal of PAF-induced bronchoconstriction in anaesthetised guinea-pigs (modified Konzett-Rossler); format: in vivo, guinea-pig (male Dunkin-Hartley); settings: Cavia porcellus, iv, PAF 40 ng/kg/min i.v., read-out: ED50 (dose resulting in 50% reversal of PAF-induced bronchoconstriction)
Procedure: The inhibition of PAF induced bronchoconstriction was measured in anaesthetised artificially ventilated guinea-pigs (450-500 g) using a modified version of the Konzett-Rossler technique (Konzett M and Rossler R, Naunym-Schmiedeb. Arch. Exp. Pathol. Pharmakol., 1940, 197, 71). Male Dunkin-Hartley guinea-pigs were anaesthetised with urethane, 1.6 g·kg^-1. Through a midline neck incision, the trachea was cannulated and the animal ventilated with a constant tidal volume set between 5 and 15 ml, to give a tracheal inflation pressure of 15 mmHg at a rate of 40 per minute. A carotid artery was cannulated for the measurement of blood pressure and heart rate and both jugular veins were cannulated, one for the infusion of PAF and the other for the administration of test compounds. PAF, 40 ng·kg^-1 ·min^-1, was infused i.v. to produced a 100% increase in tracheal inflation pressure, and bronchoconstrictor effects were determined.

T1 sequence (P25105 whole entry): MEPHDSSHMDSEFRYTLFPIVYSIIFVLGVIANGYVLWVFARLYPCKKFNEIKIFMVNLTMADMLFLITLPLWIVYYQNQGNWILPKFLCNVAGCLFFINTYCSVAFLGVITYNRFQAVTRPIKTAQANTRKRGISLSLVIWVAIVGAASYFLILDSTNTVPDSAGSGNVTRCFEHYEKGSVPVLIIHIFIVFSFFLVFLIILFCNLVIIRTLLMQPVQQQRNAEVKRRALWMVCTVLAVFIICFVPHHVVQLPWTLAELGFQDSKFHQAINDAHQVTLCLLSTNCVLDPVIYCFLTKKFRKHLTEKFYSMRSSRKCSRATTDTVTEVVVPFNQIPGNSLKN

SMILES | pIC50 [1] | ED50 [2] [µg/kg] | ED50 [3] [µg/kg] | inhibition of PAF-induced hypotension [2] [%]
COc1ccc([C@H]2CC[C@@H](OCCCCCc3cccnc3)O2)cc1OC (relative stereo) [Example 5B, O-(5-(3-Pyridyl)pentyl)-5-(3,4-dimethoxyphenyl)-gamma-butyrolactol ether] | 5.82 |  |  | 
COc1ccc(C2CCC(OC(C)CCc3cccnc3)O2)cc1OC (stereo not drawn) [Example 12, O-(1-Methyl-3-(3-pyridyl)propyl)-5-(3,4-dimethoxyphenyl)-gamma-butyrolactolether] | 5.52 |  |  | 
COc1ccc([C@H]2CC[C@@H](OC/C=C/c3cccnc3)O2)cc1OC (relative stereo) [Example 10B, E-O-(3-(3-Pyridyl)prop-2-enyl)-5-(3,4-dimethoxyphenyl)-gamma-butyrolactol ether] | 6.82 |  |  | 
COc1ccc([C@H]2CC[C@@H](OCCCn3c(C)nc4cnccc43)O2)cc1OC (relative stereo) [Example 30A, O-(3-(1H-2-Methylimidazo[4,5-c]pyridyl)propyl)-5-(3,4-dimethoxyphenyl)-gamma-butyrolactol ether] | 7.60 |  |  | 
COc1ccc(C2CCC(OCc3ccc(Cn4c(C)nc5ccccc54)cc3)O2)cc1OC (stereo not drawn) [Example 24, O-((4-(1H-2-Methylbenzimidazylmethyl)phenyl)methyl)-5-(3,4-dimethoxyphenyl)-gamma-butyrolactol ether] | 5.70 |  |  | 
COc1ccc([C@H]2CC[C@H](OCCCc3cccnc3)O2)cc1OC (relative stereo) [Example 1A, trans-O-(3-(3-pyridyl)propyl)-5-(3,4-dimethoxyphenyl)-gamma-butyrolactol ether] | 5.40 | 27 |  | 
COc1ccc(C2CCC(OCc3csc(-c4cccnc4)n3)O2)cc1OC (stereo not drawn) [Example 27, O-((2-(3-Pyridyl)-4-thiazolyl)methyl)-5-(3,4-dimethoxyphenyl)-gamma-butyrolactol ether] | 5.00 | 120 |  | 
COc1ccc(C2CCC(OCc3ccc(-n4c(C)nc5ccccc54)cc3)O2)cc1OC (stereo not drawn) [Example 23, O-((4-(1H-2-Methylbenzimidazyl)phenyl)methyl)-5-(3,4-dimethoxyphenyl)-gamma-butyrolactol ether] | 6.05 |  |  | 
COc1ccc([C@H]2CC[C@H](OCCCCCc3cccnc3)O2)cc1OC (relative stereo) [Example 5A, O-(5-(3-Pyridyl)pentyl)-5-(3,4-dimethoxyphenyl)-gamma-butyrolactol ether] | 4.92 |  |  | 
Cc1nc2cnccc2n1CCCOC1CCC(c2ccc(F)cc2)O1 (stereo not drawn) [Example 33, O-(3-(1H-2-Methylimidazo[4,5-c]pyridyl)propyl)-5-(4-fluorophenyl)-gamma-butyrolactol ether] | 8.15 | 1 |  | 
COc1ccc(C2CCC(OCCCn3c(C)nnc3C)O2)cc1OC (stereo not drawn) [Example 29, O-(3-(3,5-Dimethyl-1,2,4-triazol-4-yl)propyl)-5-(3,4-dimethoxyphenyl)-gamma-butyrolactol ether] | 6.60 |  |  | 
Cc1nc2cnccc2n1CCCOC1CCC(c2ccc(Cl)c(Cl)c2)O1 (stereo not drawn) [Example 35, O-(3-(1H-2-Methylimidazo[4,5-c]pyridyl)propyl)-5-(3,4-dichlorophenyl)-gamma-butyrolactol ether] | 8.30 | 2 |  | 
COc1ccc(C2CCC(OCCCn3c(C)nc4cnccc43)O2)cc1OC (stereo not drawn) [Example 30, O-(3-(1H-2-Methylimidazo[4,5-c]pyridyl)propyl)-5-(3,4-dimethoxyphenyl)-gamma-butyrolactol ether] | 7.82 | 1 | 0.4 | 
COc1ccc([C@H]2CC[C@H](OCCCCC#Cc3cccnc3)O2)cc1OC (relative stereo) [Example 6A, O-(6-(3-Pyridyl)hex-5-ynyl)-5-(3,4-dimethoxyphenyl)-gamma-butyrolactol ether] | 5.52 |  |  | 
COc1ccc([C@H]2CC[C@H](OC/C=C/c3cccnc3)O2)cc1OC (relative stereo) [Example 10A, E-O-(3-(3-Pyridyl)prop-2-enyl)-5-(3,4-dimethoxyphenyl)-gamma-butyrolactol ether] | 6.00 |  |  | 
COc1ccc([C@H]2CC[C@H](OCCCC/C=C\c3cccnc3)O2)cc1OC (relative stereo) [Example 7A, Z-O-(6-(3-Pyridyl)hex-5-enyl)-5-(3,4-dimethoxyphenyl)-gamma-butyrolactol ether] | 4.92 |  |  | 
Cc1nc2cnccc2n1CCCOC1CCC(c2ccc(Br)cc2)O1 (stereo not drawn) [Example 34, O-(3-(1H-2-Methylimidazo[4,5-c]pyridyl)propyl)-5-(4-bromophenyl)-gamma-butyrolactol ether] | 8.00 |  |  | 
COc1ccc(C2CCC(OCCC#Cc3cccnc3)O2)cc1OC (stereo not drawn) [Example 2, O-(4-(3-Pyridyl)but-3-ynyl)-5-(3,4-dimethoxyphenyl)-gamma-butyrolactol ether] | 5.40 |  |  | 
COc1ccc(C2CCC(OCCCCn3c(C)nc4cnccc43)O2)cc1OC (stereo not drawn) [Example 31, O-(4-(1H-2-Methylimidazo[4,5-c]pyridyl)butyl)-5-(3,4-dimethoxyphenyl)-gamma-butyrolactol ether] |  | 3 |  | 
COc1ccc([C@H]2CC[C@@H](OCCCc3ccc[n+](C)c3)O2)cc1OC (relative stereo) [Comparative Example B, cis-O-(3-(3-N-methylpyridyl)propyl)-5-(3,4-dimethoxyphenyl)-gamma-butyrolactol ether iodide, reference compound] | 6.00 | > 1000 |  | 10
COc1ccc([C@H]2CC[C@H](OCCCc3ccc[n+](C)c3)O2)cc1OC (relative stereo) [Comparative Example A, trans-O-(3-(3-N-methylpyridyl)propyl)-5-(3,4-dimethoxyphenyl)-gamma-butyrolactol ether iodide, reference compound] | 5.52 | > 1000 |  | 31
COc1ccc(C2CCC(OCCCC#Cc3cccnc3)O2)cc1OC (stereo not drawn) [Example 4, O-(5-(3-Pyridyl)pent-4-ynyl)-5-(3,4-dimethoxyphenyl)-gamma-butyrolactol ether] | 5.30 |  |  | 
COc1ccc(C2CCC(OCCCCc3cccnc3)O2)cc1OC (stereo not drawn) [Example 3, O-(4-(3-Pyridyl)butyl)-5-(3,4-dimethoxyphenyl)-gamma-butyrolactol ether] | 5.22 |  |  | 
COc1ccc(C2CCC(OCCCC/C=C\c3cccnc3)O2)cc1OC (stereo not drawn) [Example 7B, Z-O-(6-(3-Pyridyl)hex-5-enyl)-5-(3,4-dimethoxyphenyl)-gamma-butyrolactol ether] | 5.70 |  |  | 
COc1ccc(C2CCC(OCCCn3c(C)nc4cnccc43)O2)cc1Cl (stereo not drawn) [Example 36, O-(3-(1H-2-Methylimidazo[4,5-c]pyridyl)propyl)-5-(3-chloro-4-methoxyphenyl)-gamma-butyrolactol ether] | 8.52 | 2 |  | 
